Reference: patent US8637512B2, “Formulations and method of treatment” (Glaxo Group Limited, priority 2002, dated 2014)

Key:
[1] = stomach versus lower regions of the gastrointestinal tract; cited from earlier work
[2] = Regional absorption study in the gastrointestinal tract; format: in vivo
From the text: Until recently, it was not known where, in the gastrointestinal tract, lamotrigine is absorbed. In carrying out a regional absorption study it has recently been discovered that the extent of absorption of lamotrigine is consistent when the drug is delivered to any point in the gastrointestinal tract between the stomach and the ascending colon. The extent of absorption is also equivalent whether the drug is delivered as a solid or as a solution.

[3] = cited from earlier work

Nc1nnc(-c2cccc(Cl)c2Cl)c(N)n1 [Lamotrigine, 3,5-diamino-6-(2,3-dichlorophenyl)-1,2,4-triazine]
solubility in the stomach compared to lower regions of the gastrointestinal tract [1]: higher
extent of absorption, solid versus solution ([2]; drug delivered as a solid or as a solution): equivalent
extent of absorption by site of delivery ([2]; drug delivered to any point in the gastrointestinal tract between the stomach and the ascending colon): consistent
absorption after oral administration [3]: rapidly and completely absorbed
absolute bioavailability ([3]; oral administration): about 98%
effect of food on absolute bioavailability ([3]; oral administration): not affected by food
first pass metabolism ([3]; oral administration): negligible
